Assay results published in patent US8569229B2, “Compositions and methods which modulate G-protein signaling for the treatment of inflammatory disorders such as asthma and allergic conjunctivitis” (The Children's Hospital of Philadelphia, priority 2008, dated 2013).
Ends that are not written are not given here.

Tested on: OVA-sensitized rabbits
Assay: Allergic conjunctivitis response to ocular OVA challenge in OVA-sensitized rabbits
Format: in vivo, rabbit
Settings: 15 μl of 1 μM topically 20 minutes prior to OVA, examined at 60 minutes
Description: Similar to previous studies investigating either allergic asthma or allergic conjunctivitis in animal models, in vivo studies were conducted wherein adult NZW rabbits were initially systemically immunized with weekly intra-peritoneal (i.p.) injections of 2.5 mg ovalbumin (OVA) and 10 mg of alum adjuvant for 4-5 weeks. Following sensitization, as previously described in other animal models of allergic conjunctivitis (Groneberg D. A. et al. Allergy 58: 1101-1113, 2003), the OVA allergen was topically introduced into the conjunctival sac of the eyes of the rabbit to examine its ocular allergic inflammatory response. […] Accordingly, for each animal, 15 μl of a sterile 1 μM concentration of the MPS:anti-Gβγ peptide (prepared in PBS) was topically applied into the conjunctival sac of one eye 20 minutes prior to subsequent instillation of OVA (500 μg in 15 μl PBS), and the carrier MPS peptide alone (i.e., control “sham” pretreatment) was applied to the other eye 20 minutes prior to subsequent instillation of OVA. The eyes were then clinically examined for an acute ocular inflammatory response to OVA challenge and photographs were taken of each eye at 60 minutes following OVA challenge. […]

## MPS-Phosducin-like protein C terminus (AAVALLPAVLLALLAVTDQLGEDFFAVDLEAFLQEFGLLPEKE; also: MPS attached) [anti-Gβγ peptide]
  clinical signs of allergic conjunctivitis after ocular OVA challenge: virtually no clinical signs of conjunctival inflammation
Listed as MPS-conjugated anti-Gβγ peptide
  clinical signs of allergic conjunctivitis after ocular OVA challenge: signs of allergic conjunctivitis are absent
